Source: publication PMC9601927 (Foods, 2022)

Experiments:
sGLT1 = assay: siRNA-mediated knockdown of sGLT1 in Caco-2 cells (RT-PCR, Western blot); assay type: cell-based; conditions: 72 h post-transfection
Method: (§1) To examine the effect of sGLT1 and GLUT2 on ANC transmembrane transport in more detail, the Caco-2 cells were transfected with siRNA targeted to sGLT1 and GLUT2 (sGLT1 siRNA-1, sGLT1 siRNA-2, sGLT1 siRNA-3, GLUT2 siRNA-1, GLUT2 siRNA-2, and GLUT2 siRNA-3) to knockdown their expression on day 18 after differentiation. The specific experimental operation was carried out according to the literature. NC siRNA was used as a negative control. The siRNA oligos and all transfection reagents were provided by Hippobio (Huzhou, China). Western blotting and real-time PCR (RT-PCR) analyses were performed to check the sGLT1 and GLUT2 expression levels after 72 h post-transfection.
(§2) According to the manufacturer’s instructions, the MiniBEST Universal RNA Extraction Kit was used to isolate the total RNA from Caco-2 cells. Table 2 lists the three specific primers. GAPDH served as an internal control. […] The 2^−ΔΔCt method was adopted to calculate the relative quantification of the target gene.
(§3) Firstly, the cells were washed twice with 1 mL of cold PBS and then lysed in 100 μL of ice-cold RIPA lysis buffer. […] Finally, the expressions of sGLT1 and GLUT2 were detected using a Western blot assay.

GLUT2 = assay: siRNA-mediated knockdown of GLUT2 in Caco-2 cells (RT-PCR, Western blot); assay type: cell-based; conditions: 72 h post-transfection
Method: as §1, §2, §3

| Substance | expression of sGLT1 (Western blot) after siRNA transfection (sGLT1) | reduction of sGLT1 mRNA levels (RT-PCR) (sGLT1) [%] | reduction of GLUT2 mRNA levels (RT-PCR) (GLUT2) [%] | silencing of GLUT2 (Western blot) after siRNA transfection (GLUT2) |
| --- | --- | --- | --- | --- |
| sGLT1 siRNA-3: siRNA targeted to sGLT1: GGAGCGTATTGACCTGGATTT ATCCAGGTCAATACGCTCCTT (GGAGCGTATTGACCTGGATTTATCCAGGTCAATACGCTCCTT; chemistry not given here) | significantly reduced | 85 |  |  |
| GLUT2 siRNA-2: siRNA targeted to GLUT2: CGGGCATTCTTATTAGTCATT TGACTAATAAGAATGCCCGTT (CGGGCATTCTTATTAGTCATTTGACTAATAAGAATGCCCGTT; chemistry not given here) |  |  | 75 | most effective segment |
